{
  "source": "ChEMBL document CHEMBL3639096",
  "about": "“Bivalent inhibitors of IAP proteins and therapeutic methods using the same” (2014)",
  "key": {"[1]": {"target": "Baculoviral IAP repeat-containing protein 3 (Homo sapiens, UniProt Q13489)", "assay": "(§1) For cIAP-1 BIR3 and cIAP-2 BIR3 assays, a fluorescently labeled Smac mimetic (Smac-2F) was used as the fluorescent probe. The Kd values of Smac-2F to cIAP-1 BIR3 and cIAP-2 BIR3 were determined by monitoring the total fluorescence polarization of mixtures composed with the fluorescent probe at a fixed concentration and proteins with increasing concentrations up to full saturation. Fluorescence polarization values were measured using the Infinite M-1000 plate reader (Tecan U.S., Research Triangle Park, N.C.) in Microfluor 2 96-well, black, round-bottom plates (Thermo Scientific). To each well, 1 nM of SMAC-2F and increasing concentrations of protein were added to a final volume of 125 ul in the assay buffer (100 mM potassium phosphate, pH 7.5)."}, "[2]": {"target": "E3 ubiquitin-protein ligase XIAP (Homo sapiens, UniProt P98170)", "assay": "as §1"}, "[3]": {"target": "Baculoviral IAP repeat-containing protein 2 (Homo sapiens, UniProt Q13490)", "assay": "as §1"}},
  "note": "pIC50: −log10 of the molar value.",
  "data": [
    {"molecule": "CN[C@@H](C)C(=O)N[C@H]1CN(C(=O)Nc2ccc(NC(=O)N3CC[C@H]4CC[C@@H](C(=O)N[C@H]5CCC[C@H]5c5ccccc5)N4C(=O)[C@@H](NC(=O)[C@H](C)NC)C3)cc2)CC[C@H]2CC[C@@H](C(=O)N[C@H]3CCC[C@H]3c3ccccc3)N2C1=O", "values": [
      {"measurement": "pIC50", "setting": "[1]", "value": "> 6.00"},
      {"measurement": "pIC50", "setting": "[2]", "value": "> 6.00"},
      {"measurement": "pIC50", "setting": "[3]", "value": "> 6.00"}
    ]},
    {"molecule": "CN[C@@H](C)C(=O)N[C@H]1CN(C(=O)NCCCCCCNC(=O)N2CC[C@H]3CC[C@@H](C(=O)N[C@H]4CC[C@@H]4c4ccccc4)N3C(=O)[C@@H](NC(=O)[C@H](C)NC)C2)CC[C@H]2CCC(C(=O)N[C@H]3CC[C@@H]3c3ccccc3)N2C1=O", "note": "(some centres not stated)", "values": [
      {"measurement": "pIC50", "setting": "[1]", "value": "> 6.00"},
      {"measurement": "pIC50", "setting": "[2]", "value": "> 6.00"},
      {"measurement": "pIC50", "setting": "[3]", "value": "> 6.00"}
    ]},
    {"molecule": "CN[C@@H](C)C(=O)N[C@H]1CN(C(=O)Nc2ccc(CCc3ccc(NC(=O)N4CC[C@H]5CC[C@@H](C(=O)NC(c6ccccc6)c6ccccc6)N5C(=O)[C@@H](NC(=O)[C@H](C)NC)C4)cc3)cc2)CC[C@H]2CCC(C(=O)NC(c3ccccc3)c3ccccc3)N2C1=O", "note": "(some centres not stated)", "values": [
      {"measurement": "pIC50", "setting": "[1]", "value": "> 6.52"},
      {"measurement": "pIC50", "setting": "[2]", "value": "> 7.52"},
      {"measurement": "pIC50", "setting": "[3]", "value": "> 6.52"}
    ]},
    {"molecule": "CN[C@@H](C)C(=O)N[C@H]1CN(C(=O)NCCCCCCNC(=O)N2CC[C@H]3CC[C@@H](C(=O)NC4Cc5ccccc5C4)N3C(=O)[C@@H](NC(=O)[C@H](C)NC)C2)CC[C@H]2CCC(C(=O)NC3Cc4ccccc4C3)N2C1=O", "note": "(some centres not stated)", "values": [
      {"measurement": "pIC50", "setting": "[1]", "value": "> 5.30"},
      {"measurement": "pIC50", "setting": "[2]", "value": "> 6.00"},
      {"measurement": "pIC50", "setting": "[3]", "value": "> 5.00"}
    ]},
    {"molecule": "CN[C@@H](C)C(=O)N[C@H]1CN(C(=O)NCCCCCCNC(=O)N2CC[C@H]3CC[C@@H](C(=O)N[C@H]4CCC[C@H]4c4ccccc4)N3C(=O)[C@@H](NC(=O)[C@H](C)NC)C2)CC[C@H]2CCC(C(=O)N[C@H]3CCC[C@H]3c3ccccc3)N2C1=O", "note": "(some centres not stated)", "values": [
      {"measurement": "pIC50", "setting": "[1]", "value": "> 5.52"},
      {"measurement": "pIC50", "setting": "[2]", "value": "> 6.00"},
      {"measurement": "pIC50", "setting": "[3]", "value": "> 5.52"}
    ]},
    {"molecule": "CN[C@@H](C)C(=O)N[C@H]1CN(C(=O)Nc2ccc(Cc3ccc(NC(=O)N4CC[C@H]5CC[C@@H](C(=O)N[C@H]6C[C@@H]6c6ccccc6)N5C(=O)[C@@H](NC(=O)[C@H](C)NC)C4)cc3)cc2)CC[C@H]2CCC(C(=O)N[C@H]3C[C@@H]3c3ccccc3)N2C1=O", "note": "(some centres not stated)", "values": [
      {"measurement": "pIC50", "setting": "[1]", "value": "> 5.52"},
      {"measurement": "pIC50", "setting": "[2]", "value": "> 6.00"},
      {"measurement": "pIC50", "setting": "[3]", "value": "> 5.52"}
    ]},
    {"molecule": "CN[C@@H](C)C(=O)N[C@H]1CN(C(=O)Nc2ccc(NC(=O)N3CC[C@H]4CC[C@@H](C(=O)N[C@H]5C[C@@H]5c5ccc(C(F)(F)F)c(F)c5)N4C(=O)[C@@H](NC(=O)[C@H](C)NC)C3)cc2)CC[C@H]2CC[C@@H](C(=O)N[C@H]3C[C@@H]3c3ccc(C(F)(F)F)c(F)c3)N2C1=O", "values": [
      {"measurement": "pIC50", "setting": "[1]", "value": "> 5.52"},
      {"measurement": "pIC50", "setting": "[2]", "value": "> 5.52"},
      {"measurement": "pIC50", "setting": "[3]", "value": "> 5.52"}
    ]},
    {"molecule": "CN[C@@H](C)C(=O)N[C@H]1CN(C(=O)NCCCCCCNC(=O)N2CC[C@H]3CC[C@@H](C(=O)NCCc4ccccc4)N3C(=O)[C@@H](NC(=O)[C@H](C)NC)C2)CC[C@H]2CCC(C(=O)NCCc3ccccc3)N2C1=O", "note": "(some centres not stated)", "values": [
      {"measurement": "pIC50", "setting": "[1]", "value": "> 5.30"},
      {"measurement": "pIC50", "setting": "[2]", "value": "> 6.00"},
      {"measurement": "pIC50", "setting": "[3]", "value": "> 6.00"}
    ]},
    {"molecule": "CN[C@@H](C)C(=O)N[C@H]1CN(C(=O)Nc2ccc(NC(=O)N3CC[C@H]4CC[C@@H](C(=O)N[C@H]5C[C@@H]5c5ccccc5F)N4C(=O)[C@@H](NC(=O)[C@H](C)NC)C3)cc2)CC[C@H]2CC[C@@H](C(=O)N[C@H]3C[C@@H]3c3ccccc3F)N2C1=O", "values": [
      {"measurement": "pIC50", "setting": "[1]", "value": "> 6.00"},
      {"measurement": "pIC50", "setting": "[2]", "value": "> 6.00"},
      {"measurement": "pIC50", "setting": "[3]", "value": "> 6.00"}
    ]}
  ]
}
